Results reported in article PMC11722135, “Structure- and Ligand-Based Virtual Screening for Identification of Novel TRPV4 Antagonists” (Molecules, 2024).
“Also recorded” adds a separate entry of the source.

Assays:
[1] = system: TRPV4; parameters: method as in doi:10.1101/2020.10.13.334797; details: read-out: EC50 (TRPV4 agonist); cited from earlier work
[2] = target: T1, human TRPV4 (Homo sapiens, UniProt Q9HBA0); experiment: FLIPRtetra calcium assay, second addition (antagonism of 500 nM GSK1016790A); format: cell-based; details: for Inhibitory effect / activity on hTRPV4 in vitro: natural stilbenoids, 0.05–37.5 µM concentration series; for IC50: HEK-293 cells transiently transfected with human TRPV4, 500 nM GSK1016790A, 37 °C, read-out: IC50 (inhibition of response evoked by GSK1016790A)
T1 construct: host or cells: HEK-293 cells (ATCC), transient transfection
Procedure: (§1) The TRPV4 pharmacology of the hit compounds (Enamine) and the natural stilbenoids (purity > 95%, extracted at the Laboratory of Organic Chemistry at Åbo Akademi University) was studied with the fluorometric imaging plate reader FLIPR^tetra (Molecular Devices, San Jose, CA, USA) using a dual addition protocol, in which a compound’s agonism is initially measured and then, subsequently, a reference agonist is added to assess the compound’s possible antagonism. The studies were conducted in a 96-well plate format using HEK-293 cells (ATCC) that were transiently transfected with the human TRPV4 plasmid (Origene, Rockville, MD, USA, cat. SC309684). HEK cells were used as they are easy to transfect, and TRPV4 overexpressing cells provide a robust system to study TRPV4-mediated calcium responses with a wide signal window. In the experiments, the cells were loaded with a Calcium 4 Assay reagent (Molecular Devices) to enable intracellular calcium measurements. The study protocol was initiated by dispensing a concentration series (0.05–37.5 µM) of the test compounds on cells by FLIPR^tetra, and the agonism was recorded for 10 min followed by the second addition, 500 nM of the known TRPV4 agonist GSK1016790A (Sigma-Aldrich, St. Louis, […], USA, cat. G0798). The antagonism of the test compounds was measured for 2 min. All the experiments were performed at 37 °C. The excitation and emission were measured at wavelengths of 470–495 nm and 515–575 nm, respectively.
(§2) In compound agonism and antagonism analysis, the fluorescence values were normalized by subtracting the baseline value from the maximum value of the first 10 min and of the last 2 min measured for each well, respectively. EC50 and IC50 values were determined from dose–response curves using a nonlinear regression curve fit by Prism (version 9.1.0). Dose–response curves were constructed from a mean of 3 separate wells at each compound concentration.

[3] = target: T1, human TRPV4; experiment: FLIPRtetra calcium assay, first addition (agonism); format: cell-based
Procedure: as §1, §2

T1 sequence (Q9HBA0 whole entry): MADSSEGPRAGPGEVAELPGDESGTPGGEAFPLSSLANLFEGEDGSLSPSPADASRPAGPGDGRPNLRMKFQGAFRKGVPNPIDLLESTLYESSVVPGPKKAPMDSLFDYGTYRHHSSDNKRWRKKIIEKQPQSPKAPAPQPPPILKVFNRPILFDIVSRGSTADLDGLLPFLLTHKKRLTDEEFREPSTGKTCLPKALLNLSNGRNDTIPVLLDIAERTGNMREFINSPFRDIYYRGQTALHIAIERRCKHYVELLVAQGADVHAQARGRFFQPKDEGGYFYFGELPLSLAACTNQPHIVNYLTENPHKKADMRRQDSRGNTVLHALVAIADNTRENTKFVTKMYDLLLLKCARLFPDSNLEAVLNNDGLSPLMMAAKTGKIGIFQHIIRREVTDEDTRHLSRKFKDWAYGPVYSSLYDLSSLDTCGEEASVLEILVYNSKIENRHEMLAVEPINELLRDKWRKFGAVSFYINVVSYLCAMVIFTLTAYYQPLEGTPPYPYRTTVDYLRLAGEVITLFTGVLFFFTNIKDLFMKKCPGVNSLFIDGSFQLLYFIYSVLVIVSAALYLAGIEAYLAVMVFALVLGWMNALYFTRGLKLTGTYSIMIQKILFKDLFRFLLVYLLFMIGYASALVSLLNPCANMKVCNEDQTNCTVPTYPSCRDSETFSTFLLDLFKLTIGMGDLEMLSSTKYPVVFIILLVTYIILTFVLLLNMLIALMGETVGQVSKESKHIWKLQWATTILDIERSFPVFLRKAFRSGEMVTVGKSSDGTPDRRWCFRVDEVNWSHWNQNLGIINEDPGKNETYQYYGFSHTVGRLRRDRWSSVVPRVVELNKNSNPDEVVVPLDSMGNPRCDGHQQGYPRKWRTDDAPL

CCCCCCCCCC(=O)O[C@@H]1[C@@H](C)[C@@]2(O)[C@@H](C=C(CO)C[C@@]3(O)C(=O)C(C)=C[C@@H]23)[C@@H]2C(C)(C)[C@]12OC(=O)CCCCCCCCC [4α-PDD, 4α-phorbol 12,13-didecanoate]
EC50 [1]: 0.2 µM

OC[C@H]1O[C@@H](Oc2cc(O)cc(/C=C/c3ccc(O)c(O)c3)c2)[C@H](O)[C@@H](O)[C@@H]1O [Astringin, astringin]
Inhibitory effect / activity on hTRPV4 in vitro [2]: inactive

CC(C)C[C@H](NC(=O)c1cc2ccccc2s1)C(=O)N1CCN(C(=O)[C@H](CO)NS(=O)(=O)c2ccc(Cl)cc2Cl)CC1 [GSK1016790A]
EC50 [1]: 0.002 µM

COc1cc(/C=C/c2cc(O)cc(O[C@@H]3O[C@H](CO)[C@@H](O)[C@H](O)[C@H]3O)c2)ccc1O [Isorhapontin, isorhapontin]
Inhibitory effect / activity on hTRPV4 in vitro [2]: inactive

O=C(CC(NC(=O)c1ccccc1Cl)c1ccccc1)Nc1ccc(N2CCCC2)nc1 (stereo not drawn) [Z221487176]
IC50 [2]: > 30 µM

O=C(CC1C(=O)Nc2ccccc2N1C(=O)/C=C/c1ccccc1)Nc1ccc(F)cc1 (stereo not drawn) [Z1213735368]
Inhibition of the response evoked by GSK1016790A ([2]; 10 µM, 500 nM GSK1016790A): inhibited the response evoked by GSK1016790A; also recorded: inhibited the response induced by GSK1016790A | Inhibitory effect on hTRPV4 / reversal of the effect of GSK1016790A ([2]; 30 µM (high concentration), 500 nM GSK1016790A): reverse the effect of GSK1016790A | IC50 [2]: 8 µM | Agonistic activity on the channel ([3]; 10 µM): without any agonistic activity | Increase in the fluorescence signal / [Ca2+] (agonism) ([3]; high concentration (30 µM)): evoked a slow increase in the fluorescence signal; also recorded: gradually raised [Ca^2+] levels

CN1C(=O)c2ccc(NCc3nc(-c4c(F)cccc4F)cs3)cc2C1=O [Z1728742868]
Inhibition of the effect of GSK1016790A ([2]; 37.5 µM (highest test concentration), 500 nM GSK1016790A): inhibited the effect of GSK1016790A; also recorded: effectively inhibited the response | EC50 ([3]; HEK-293 cells transiently transfected with human TRPV4, 37 °C, read-out: EC50 (increase in intracellular calcium)): 14 µM
